Where “and” joins values, the source holds several entries; their conditions need not be identical. Equal entries are not always repeated.
Assays:
[1] = Measurement of pKa value by NaOH titration in water/acetone; conditions: for pKa: water/acetone mixture (10/15 ml)
Procedure: (§1) In a water/acetone mixture (10/15 ml) solution was put 0.4045 g of the above-mentioned cyclopentene derivative, followed by stirring at room temperature. After it was confirmed that the solution became homogeneous, titration was carried out with about 0.2 mol/liter NaOH solution. A titration curve was obtained by adding a NaOH solution dropwise in increments of 0.15 ml and recording a pH value at every addition. An equivalence point was determined by an inflection point (maximum differential value of titration curve=dpH/dml) of the titration curve. […] From a titration curve of water/acetone solution and aqueous solution which had been measured previously as a blank solution, a difference in a pH value derived from an electric potential difference between the solutions at titration of 4.0 ml was 1.50.

physchem = conditions: (2) pKa
Procedure: as §1

[2] = (2) pKa, titration with about 0.2 mol/liter NaOH in water/acetone, corrected with blank
[3] = titration with about 0.2 mol/liter NaOH in water/acetone, corrected with blank

Compound	pKa [1, 2]	(2) pKa [1, 3]	further results
OC(C1CC2C=CC1C2)(C(F)(F)F)C(F)(F)F (centres unmarked)	10.2		
OC(C(F)(F)F)(C(F)(F)F)C1(F)CC2C=CC1C2 (centres unmarked)	9		
OC(C(F)(F)F)(C(F)(F)F)C1(F)C2C=CC(C2)C1(F)F (centres unmarked)			pKa (physchem): 8.3
OC1(C(F)(F)F)C2C=CC(C2)C1(F)F (centres unmarked)	11.5		
OC(C(F)(F)F)C(F)(F)F [CF3CH(CF3)—OH, reference compound]		9.3	
OC(C1C=CCC1)(C(F)(F)F)C(F)(F)F (centres unmarked) [Example 12, cyclopentene having —C(CF3)2OH group]	9.8		pKa value (single titration) ([1]; individual titrations of 0.4045 g, 0.8104 g and 0.9812 g in water/acetone (10/15 ml), listed as cyclopentene derivative having —C(CF3)2OH group): 9.95 and 9.86; pKa ([1]; pKa value (single titration), individual titrations of 0.4045 g, 0.8104 g and 0.9812 g in water/acetone (10/15 ml)): 9.62

More lines, main results first:

pKa [1, 2]	(2) pKa [1, 3]	Compound	further results
	7.1	CF2═CF—C(CF3)2OH [reference compound]	
	8.0	CH2═CF—C(CF3)2OH [reference compound]	
	9.6	CH2═CHCH2C(CF3)2OH [reference compound]	

— patent US7115690B2, “Fluorine-containing polymer, resist composition prepared from same and novel fluorine-containing monomer” (Daikin Industries, Ltd., priority 2001, dated 2006)
